The subject of one experiment is LDHA. The experiment is described as follows: Wet lab validation of LDHA expression in HepG2 cells. The experiment is classed as cell-based. The conditions noted are these: HepG2, 50 uM or 100 uM CoQ10, 24 or 48 hours. As to the method:
The cell model comprising the above-mentioned cells, wherein the cells were exposed to each condition described above, was additionally interrogated by exposing the cells to an environmental perturbation by treating with Coenzyme Q10. Specifically, the cells were treated with Coenzyme Q10 at 0, 50 μM, or 100 μM.
Cell samples as well as media samples for each cell line with each condition and each Coenzyme Q10 treatment were collected at various times following treatment, including after 24 hours and 48 hours of treatment.
Protein accession number P00338 is LDHA. Wet lab validation of proteomics data were performed for LDHA expression in HepG2 cells (see FIG. 20).

In experiment [1] the test system is hyperglycemia conditioned cardiomyocytes. The experiment is described as follows: Mitochondrial oxygen consumption rate in hyperglycemia conditioned cardiomyocytes (Seahorse). The experiment is classed as cell-based, Human. The conditions noted are these: diabetic drug plus Coenzyme Q10 (T1+R or T2+R). As to the method:
Human cardiomyocytes were subject to conditions simulating an diabetic environment experienced by the disease-relevant cells in vivo. Specifically, the cells were exposed to hyperglycemic conditions and hyperlipidemia conditions. The hyperglycemic condition was induced by culturing cells in media containing 22 mM glucose. The hyperlipidemia condition was induced by culturing the cells in media containing 1 mM L-carnitine, 0.7 mM Oleic acid and 0.7 mM Linoleic acid.
iProfiling of changes in total cellular protein expression by quantitative proteomics was performed for cell and media samples collected for each condition and with each “environmental perturbation”, i.e, diabetic drug treatment, Coenzyme Q10 treatment or both, using the techniques described above in the detailed description. Transcriptional profiling experiments were carried out using the Biorad cfx-384 amplification system. Following data collection (Ct), the final fold change over control was determined using the δCt method as outlined in manufacturer's protocol. Lipidomics experiments were carried out using mass spectrometry. Functional assays such as Oxygen consumption rate OCR were measured by employing the Seahorse analyzer essentially as recommended by the manufacturer. OCR was recorded by the electrodes in a […] chamber created with the cartridge pushing against the seahorse culture plate. […]

For experiment [2], the system named is HUVEC cells. The experiment is described as follows: HUVEC cell numbers. The experiment is classed as cell-based, Human. As to the method: (§1) Methods: Human umbilical vein endothelial cell (HUVEC) fate decisions that modulate the angiogenic phenotype were examined in the presence of 100 or 1500 μM CoQ10 or excipient and compared to untreated control cells. Endothelial cell fate assays for apoptosis, proliferation, migration and 3-D tube formation within MATRIGEL® were performed.
CoQ10 decreases endothelial cell numbers and proliferation: Sub-confluent cultures of HUVEC cells were treated for 72 hours with 100 or 1500 μM CoQ10 and assayed for both cell numbers (FIG. 54A) and proliferation (FIG. 54B) using a propidium iodide incorporation assay (detects G2/M phase DNA).

The subject of experiment [3] is HUVEC cells. The experiment can be described thus: Endothelial tube formation in 3-D MATRIGEL
It counts as cell-based, Human. The conditions noted are these: for endothelial tube formation: 3-D matrigel. The procedure:
as §1
To assess the potential effects of CoQ10 on endothelial migration, HUVEC migration was examined 5 hours post-cell clearance, in an endothelial scratch assay. […] In order to determine if the CoQ10 anti-tumor activity is due to effects on endothelial sprouting angiogenesis, we examined endothelial tube formation in 3-D MATRIGEL® cultures over time. Addition of excipient in both the gel and overlying media impaired tube formation compared to control.
CoQ10 impairs endothelial tube formation: Endothelial cells growing in 3-D matrigel form tubes over time. Differential effects of 100 μM and 1500 μM CoQ10 on tube formation were observed. […] Images shown in FIG. 56 were taken at 72 hours.

The subject of experiment [4] is HUVEC cells. The experiment is described as follows: Nitric oxide (NO) generation in HUVEC under normoxia and hypoxia. The conditions noted are these: subconfluent and confluent HUVEC, normoxic or hypoxic, 0, 100 or 1500 μM CoQ10. The experiment is classed as cell-based, Human. As to the method:
The response of HUVEC cells to normoxia and hypoxia in the presence of absence of CoQ10 was assessed. Specifically, HUVEC cells were grown in subconfluent and confluent cultures under normoxic or hypoxic conditions as described herein. The cells were also exposed to 0, 100, or 1500 μM CoQ10. Nitric oxide (NO) and reactive oxygen species (ROS) levels were determined using methods provided herein.

The test system of experiment [5] is HUVEC cells. The experiment is described as follows: HUVEC bioenergetics (Seahorse assays). It counts as cell-based, Human. The conditions noted are these: sub-confluent HUVEC cultures, CoQ10 10, 100, 1500 μM. As to the method: The bioenergetics of HUVEC cells were assessed in the presence of various concentrations of CoQ10. Specifically, HUVEC cells were grown in subconfluent or confluent conditions in the absence or presence of CoQ10 (10, 100, 1500 μM). Oxygen consumption rates (OCR), both total and mitochondrial, ATP production, and Extra Cellular Acidification Rate (ECAR) were assessed using Seahorse assays.

The subject of the next experiment is Bcl2. The conditions noted are these: normal fibroblast, co-administration of CoQ-10 and VEGF; cited from earlier work.

Entries after “also recorded” stand apart in the source; their conditions may differ.

These results are taken from US12437835B2, “Interrogatory cell-based assays and uses thereof” (Berg LLC, priority 2012, dated 2025).

As for `COC1=C(OC)C(=O)C(C/C=C(\C)CC/C=C(\C)CC/C=C(\C)CC/C=C(\C)CC/C=C(\C)CC/C=C(\C)CC/C=C(\C)CC/C=C(\C)CC/C=C(\C)CCC=C(C)C)=C(C)C1=O` [CoQ10, Coenzyme Q10], the LDHA expression levels result with LDHA was “decreased”. Besides, the “mitochondrial OCR (oxygen consumption rate)” value was “normalized” in experiment [1] and “normalizes” in experiment [1] (listed as rescue molecule). Moreover, in the experiment with HUVEC cells [2] (1500 μM CoQ10), the HUVEC cell counts result is listed as “significantly decreased”. Moreover, in the experiment on HUVEC cells [2] (sub-confluent HUVEC, 72 hours, 100 or 1500 μM, high concentrations of CoQ10), the cell numbers entry is “significant decrease; also recorded: decreased cell numbers”. Also, the HUVEC tube formation result with HUVEC cells [3] (1500 μM CoQ10, compared to both excipient and control untreated cells, 24 hours up to 96 hours) was “further impaired”. The endothelial tube formation result with HUVEC cells [3] (100 μM CoQ10) is “modest effect”; in the experiment with HUVEC cells [3] (1500 μM CoQ10, images at 72 hours) it was “Impaired cell to cell association and breakdown of early tube structure was significant; also recorded: dramatic disruption of endothelial tube formation”. The “tube formation in 3-D MATRIGEL tube formation assays” value in the experiment with HUVEC cells [3] (concentration not stated (summary)) is on record as “impairs”. Besides, in the experiment with HUVEC cells [4], the “generation of nitric oxide (NO)” value is reported as “differential dose dependent generation”. The “mitochondrial OCR” value with HUVEC cells [5] is recorded as “reverts mitochondrial OCR to confluent level OCR”. Further, the “levels of Bcl2” value in the experiment on Bcl2 is recorded as “no effect”.
